Consider 30 compounds from patent US20260256747A1, “ARYL-TRIAZOLYL AND RELATED GPR84 ANTAGONISTS AND USES THEREOF” (Liminal BioSciences Limited, priority 2022, published 2026).

In assay [1] the test system is mouse dextran sodium sulfate-induced chronic inflammatory bowel disease model. The settings on record: once-daily doses of 3 and 10 mg/kg; efficacy similar to sulfasalazine; cited from earlier work.
Another assay deals with T1, human GPR84 receptor (Homo sapiens, UniProt Q9NQS5).
T1 construct: host or cells: HEK293 cells, transient transfection
Kind of assay: Gαi biosensor BRET assay in HEK293 cells transfected with GPR84, stimulated with the GPR84 agonist ZQ-16. Format: cell-based. The note with it: 200 nmol/L ZQ-16; for inhibition at 10 µM / inhibition at 2 µM: HEK293, single concentration; for inhibition at 10 µM: concentration class F = 10 μM; for inhibition at 2 µM: concentration class A = 2 μM. Background: BRET reads energy transfer from a luciferase to a nearby fluorophore.

T1 sequence (Q9NQS5 whole entry): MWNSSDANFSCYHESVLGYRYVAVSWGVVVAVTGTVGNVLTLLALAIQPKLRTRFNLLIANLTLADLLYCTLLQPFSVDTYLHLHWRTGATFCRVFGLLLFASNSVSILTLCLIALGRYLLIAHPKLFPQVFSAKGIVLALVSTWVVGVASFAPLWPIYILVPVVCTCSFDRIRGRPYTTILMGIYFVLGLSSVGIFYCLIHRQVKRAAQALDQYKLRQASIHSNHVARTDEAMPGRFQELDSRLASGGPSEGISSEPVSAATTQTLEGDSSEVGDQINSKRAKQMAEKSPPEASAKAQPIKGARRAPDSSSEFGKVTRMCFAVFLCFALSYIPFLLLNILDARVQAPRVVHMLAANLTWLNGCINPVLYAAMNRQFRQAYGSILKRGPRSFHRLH

Regarding `O=c1nc(OC[C@@H]2COCCO2)cc2n1CCc1cc(C#CC3CC3)ccc1-2` [GLPG1205], in assay [1], the “disease activity index score” value is reported as “reduced” and the neutrophil infiltration result was “reduced”.
A word on the inhibition: it is how much of the control response was suppressed. Take `O=C(Cn1cnc(-c2ncc(C#CC3CC3)cc2OC2CC2)c1)N1CCCC1` [Compound I-242]: the inhibition at 10 µM at human GPR84 receptor is 50 to 75%.
Same read-out and setting: then `CN(c1ccc(C#CC2CC2)cc1)c1cn(CC2OCC(C)(C)CO2)nn1` [Compound I-149], with at most 25%; and `CN(C)C(=O)Cn1cc(-c2ncc(-c3nnn[nH]3)cc2OC2CC2)nn1` [Compound I-232], with 50 to 75%.
On the same count and under the same terms, under `CN(c1cccc(C#N)c1)c1cn(CC2OCC(C)(C)CO2)nn1` [Compound I-160] stands 25 to 50%.
Still for that read-out and setting: then `C(#CC1CC1)c1ccc(-c2nnc(-c3cn(CC4OCC5(CC5)CO4)nn3)o2)cc1` [Compound I-254], with 25 to 50%.
Broadly, the IC50 is the concentration at which inhibition is half-maximal. In the case of `CC1(C)COC(Cn2cc(-c3ncc(C#CCNC4COC4)cc3OC3CC3)nn2)OC1` [Compound I-21], on human GPR84 receptor, the IC50 is at most 0.3 µM and the inhibition at 2 µM is over 75%.
`[2H]C([2H])([2H])C1(C([2H])([2H])[2H])COC(Cn2cc(-c3ccc(N4CC(C)(CO)C4)cc3N(C)C)nn2)OC1` [Compound I-206] gave an inhibition at 10 µM at human GPR84 receptor of at most 25%.
Same read-out and setting: then `CN(C)C(=O)COc1cnc(-c2cn(CC3OCC4(CC4)CO3)nn2)c(OC2CC2)c1` [Compound I-72], with 25 to 50%.
On human GPR84 receptor, `CCc1cc(C#CCNS(C)(=O)=O)ccc1-c1cn(CC2OCC(C)(C)CO2)nn1` [Compound I-1, N-(3-(4-(1-((5,5-dimethyl-1,3-dioxan-2-yl)methyl)-1H-1,2,3-triazol-4-yl)-3-ethylphenyl)prop-2-ynyl)methanesulfonamide] registered a half-inhibitory concentration (IC50) of 0.3 to 1 µM and an inhibition at 10 µM of over 75%.
For `O=C(Cn1cc(-c2ncc(C#CC3(O)CC3)cc2OC2CC2)nn1)N1CCCC1` [Compound I-250], the inhibition at 10 µM at human GPR84 receptor was over 75%.
Same read-out and setting: under `O=C(Cn1cc(-c2ncc(C#CC3CC3)cc2OC2CC2)nn1)N1C[C@H](O)[C@@H](O)C1` [Compound I-247] stands over 75%.
Regarding `c1nc(-c2cn(CC3OCC4(CC4)CO3)nn2)c(OC2CC2)cc1-c1nnn[nH]1` [Compound I-205], at human GPR84 receptor, the half-maximal inhibitory concentration (IC50) is at most 0.3 µM and the inhibition at 2 µM is over 75%.
Turning to `c1nc(-c2cn(CC3OCC4(CC4)CO3)nn2)c(OC2CC2)cc1N1CC2(CC2)C1` [Compound I-17], on human GPR84 receptor, the IC50 fell in the range of 0.3 to 1 µM and the inhibition at 10 µM is over 75%.
Taken in the same sequence, the figures for `[2H]C([2H])([2H])N(c1cc(N2CC(C)(CO)C2)ccc1-c1cn(CC2OCC3(CC3)CO2)nn1)C([2H])([2H])[2H]` [Compound I-55] were 0.3 to 1 µM and over 75%.
On human GPR84 receptor, `Cn1ccc(-c2cnc(-c3cn(CC4OCC5(CC5)CO4)nn3)c(OC3CC3)c2)n1` [Compound I-238] gave an IC50 of at most 0.3 µM and an inhibition at 2 µM of over 75%.
As to `Cc1ccc(C#CC2CC2)cc1-c1nnc(-c2cn(CC(=O)N(C)C)nn2)o1` [Compound I-260], the inhibition at 10 µM on human GPR84 receptor is at most 25%.
On the same count and under the same terms, under `CN(C(=O)c1cnc(-c2cn(CC3OCC4(CC4)CO3)nn2)c(OC2CC2)c1)C1CC1` [Compound I-59, 6-(1-((5,7-dioxaspiro[2.5]octan-6-yl)methyl)-1H-1,2,3-triazol-4-yl)-5-cyclopropoxy-N-cyclopropyl-N-methylnicotinamide] stands at most 25%.
Take `C(#CC1CC1)c1cnc(-c2cn(C[C@H]3CCCCO3)cn2)c(OC2CC2)c1` [Compound I-54]: on human GPR84 receptor, the 50% inhibitory concentration (IC50) was at most 0.3 µM and the inhibition at 2 µM was over 75%.
On human GPR84 receptor, `CC1(C)COC(Cn2cc(-c3ncc(C(=O)NCc4cnccn4)cc3OC3CC3)nn2)OC1` [Compound I-10] came in with an inhibition at 10 µM of at most 25%.
Still for that read-out and setting: under `CC1(C)COC(Cn2ncc(C#Cc3ccncc3)n2)OC1` [Compound I-43] stands at most 25%.
As for `CC1(C)COC(Cn2cc(-c3ncc(C#CC4(O)CC4)cc3OC3CC3)nn2)OC1` [Compound I-34], at human GPR84 receptor, the IC50 is at most 0.3 µM and the inhibition at 2 µM is over 75%.
On human GPR84 receptor, `CN(C)C(=O)CN(C)c1cnc(-c2cn(CC3OCC4(CC4)CO3)nn2)c(OC2CC2)c1` [Compound I-231] had an inhibition at 10 µM of at most 25%.
`Cc1ccc(C#CC2CC2)cc1C(F)(F)c1cn(CC(=O)N(C)C)nn1` [Compound I-263]: at human GPR84 receptor, the inhibition at 2 µM lay within 25 to 50%.
Regarding `Cn1cncc1-c1cnc(-c2cn(CC3OCC4(CC4)CO3)nn2)c(OC2CC2)c1` [Compound I-230], on human GPR84 receptor, the inhibition at 10 µM lay within 50 to 75%.
On human GPR84 receptor, `Cn1nnc(-c2cnc(-c3cn(CC4OCC5(CC5)CO4)nn3)c(OC3CC3)c2)n1` [Compound I-223] yielded an IC50 of at most 0.3 µM and an inhibition at 2 µM of over 75%.
At human GPR84 receptor, `CN(C)c1cc(N2CC3(COC3)C2)ccc1-c1cn(CC2OCC(C)(C)CO2)cn1` [Compound I-45, 2-(1-((5,5-dimethyl-1,3-dioxan-2-yl)methyl)-1H-imidazol-4-yl)-N,N-dimethyl-5-(2-oxa-6-azaspiro[3.3]heptan-6-yl)aniline] returned an IC50 of 1 to 3 µM and an inhibition at 10 µM of over 75%.
Take `CNC(=O)c1cnc(-c2cn(CC3OCC4(CC4)CO3)nn2)c(OC2CC2)c1` [Compound I-66]: the inhibition at 10 µM on human GPR84 receptor fell in the range of 50 to 75%.
On the same count and under the same terms, then `c1nc(-c2cn(CC3OCC4(CC4)CO3)nn2)c(OC2CC2)cc1N1CC2(COC2)C1` [Compound I-20], with over 75%.
On human GPR84 receptor, `[2H]C([2H])([2H])N(c1cc(N2CC(C)(CO)C2)ccc1-c1cn(CC2OCC(C)(C)CO2)nn1)C([2H])([2H])[2H]` [Compound I-50] returned a half-maximal inhibitory concentration (IC50) of 0.3 to 1 µM.
